Experimental data published in patent US20030158213A1, “Xanthine oxidase inhibition as a strategy to alleviate oxidative impairment of vascular function” (priority 2001, published 2003).
Entries after “also recorded” stand apart in the source; their conditions may differ. Where two headings read alike, the source gives them in different places.

Columns and labels:
aorta of SCD mice = assay: Vessel O2.- production by coelenterazine-enhanced chemiluminescence; type: cell-based, mouse; conditions: for rates of O2.— production enhanced by xanthine: SCD mouse vessels pretreated, CuZn SOD 30 U/ml, allopurinol 100 μM, BOF-4272 25 μM
Excerpt: Values represent mean±SD (n=4). Statistical analysis was by two-way ANOVA with the Duncan's post hoc test. *, p<0.05 compared to control. +, p<0.05 compared to xanthine-treated sickle cell vessels. **, […] compared to control and all treated vessel groups.

HbA and HbS red cells [1] = assay: Red cell O2.- release by cytochrome c reduction; type: cell-based, human
Experimental: If red blood cells from sickle cell patients produce increased amounts of O2. and H2O2 as compared to red blood cells from healthy donors, then local depletion of .NO might be explained on this basis. […] The mean Hb content of HbA and HbS red cell preparations was similar. DMNQ (100 μM) was added to stimulate red cell O2.— production.
Blood was collected from healthy HbA adult volunteers and homozygous HbS patients in anticoagulated (EDTA) vacu-containers. All individuals were evaluated for cytochrome b5 reductatse and glucose-6-phosphate dehydorgenase activity and none were reported deficient. […] Packed RBCs were diluted to a hematocrit of 2.5% (vol/vol) hemoglobin concentrations as determined with Drabkin's reagent at 540 nm, and rates of O2. release over 2 hours were quanitifed spectrophotometrically by CuZn SOD-inhibitable (100 units/ml, equivalent to approximately 33 ug/ml SOD) reduction of cytochrome c (50 uM) at 550 nm(εM=21 mM^−1cm^−1). In some experiments, O2. release was measured in cells pretreated with DMNQ (Oxis, 100 uM), 3-hydroxy-1,2-dimethyl-4-pyridone (HDP, Aldrich, 0.5 mM), and 4,4-diisothiocyano-2,2 disulfonic acid stilbene (DIDS, Sigma, 200 uM). Possible Hb intereference in determination of rates of cytochrome c reduction was evaluated by performing a singular value decomposition analysis (Matlab, Mathworks, Natick, Mass.).

eNOS = assay: NOS activity in lysates of BAEC after oxidant stress; type: cell-based, bovine; conditions: 2 hr, mean ± SEM, n = 3
Excerpt: Also, XO can serve as a source of H2O2 that in turn will support the oxidative reactions of myeloperoxidase (NO consumption and the generation of chlorinating, nitrating and oxidizing species). Another potential mechanism explaining XO inhibition of endothelial-dependent relaxation and cGMP formation may be oxidant-induced changes in the expression and/or activity of eNOS, especially during more chronic exposure to reactive oxygen species. Bovine aortic endothelial cells (BAEC) were exposed to the redox-cycling quinone 2,3-dimethoxynapthoquinone (DMNQ), which generates controllable and low rates of O2.— and H2O2. Following treatment with DMNQ for 2 hr, the capacity of endothelial cell lysates to oxidize arginine to citrulline was used to indicate eNOS activity. Additional cells were incubated with 10 mU/ml XO for 1 hr, extensively washed and 100 μM xanthine was added during a 1 hr post-incubation period.

HbA and HbS red cells [2] = assay: Red cell nitric oxide consumption; type: cell-based, human; conditions: extracellular CuZn SOD 100 U ml^−1; DMNQ 100 μM
Excerpt: Values represent mean±SEM (n=4 to 14). Statistical analysis was by two-way ANOVA with Tukey post hoc test. *, p<0.05 compared with basal;
Accepting that *NO reacts at almost diffusion-limited rates with O2.— (25), the relative rates of red cell .NO consumption was utilized to probe for differences in both intra-and extracellular O2.— (and possibly LOO—) production by HbA and HbS red cells. […] The presence of endogenous lipid hydroperoxides was undetectable in both HbA and HbS RBC membranes.

xanthine oxidase = target: T1, xanthine oxidase (Homo sapiens, UniProt P47989); conditions: intravascular concentration of 10 μg/ml; cited from earlier work
T1 construct: host or cells: forearm blood vessels, in vivo infusion of oxypurinol

[3] = compared to allopurinol; cited from earlier work
aortic rings [4] = assay: Acetylcholine relaxation of aortic rings pre-incubated with XO; type: cell-based; conditions: rings incubated with XO 10 mU/ml 1 hr, washed; xanthine in buffer; heparin 10-1000 U/ml, allopurinol 10-250 μM
Experimental: (§1) Increased cell-associated XO can impair endothelial-dependent vascular signaling. When isolated aortic ring segments are incubated with XO for 1 hr and then extensively washed to remove unbound XO, endothelial-dependent relaxations in response to acetylcholine are diminished when the XO substrate xanthine is present in the buffer (FIG. 2A). Inhibition of endothelial-dependent relaxation is abrogated by post-washing treatment of the aortic rings with the XO inhibitor allopurinol, as well as heparin, which inhibits and/or competes for XO binding to endothelial cell GAGs. This ex vivo model of vascular dysfunction reinforces observations made in a model of atherosclerosis. […] Importantly, there appears to be sufficient substrate in the vasculature for XO to catalyze elevated oxidant production, without the need for exogenously added purine.

aortic rings [5] = assay: Acetylcholine relaxation of aortic rings from cholesterol-fed rabbits; type: cell-based, rabbit; conditions: rings from rabbits on 1% cholesterol diet (6 weeks); heparin 1000 U/ml, allopurinol 100 μM
Experimental: as §1

guanylate cyclase = assay: Ionomycin-induced .NO-dependent cGMP formation, XO-exposed endothelial cells with smooth muscle cells; type: cell-based, bovine; conditions: BAEC exposed to XO 10 mU/ml 3 hr, washed; xanthine 100 μM, ionomycin 6.7 μM, 15 min; cGMP by ELISA
Experimental: Endothelial cells were cultured on Transwell filters and exposed to XO (10 mU/ml) for 3 hr and washed extensively. Filters were then transferred to dishes containing smooth muscle cells and incubated with xanthine (100 μM) and ionomycin (6.7 μM)±allopurinol for 15 min. cGMP was then determined by ELISA. (n=3);
Bovine aortic endothelial cell (BAEC) monolayers having bound and potentially internalized XO manifested an impaired ability to support ionomycin-induced, .NO-dependent cGMP formation by adjacent smooth muscle cells.

[6] = test system: vessel rings prepared from sickle cell mice; assay: Relaxation of vessel rings from sickle cell mice to NO-dependent stimuli; type: cell-based, mouse; conditions: MnTE-2-PyP 50 μM, allopurinol 50 μM
[7] = test system: myocardial ischemia-reperfusion injury; conditions: rabbit; cited from earlier work
[8] = test system: myocardial ischemia-reperfusion injury; conditions: clinical; cited from earlier work
[9] = at pharmacologic concentrations; cited from earlier work
[10] = test system: cultured endothelial cells; conditions: heparin on bound XO; enzymes as pretreatment of cells; cited from earlier work

T1 sequence (P47989 whole entry, the tested form may be a part): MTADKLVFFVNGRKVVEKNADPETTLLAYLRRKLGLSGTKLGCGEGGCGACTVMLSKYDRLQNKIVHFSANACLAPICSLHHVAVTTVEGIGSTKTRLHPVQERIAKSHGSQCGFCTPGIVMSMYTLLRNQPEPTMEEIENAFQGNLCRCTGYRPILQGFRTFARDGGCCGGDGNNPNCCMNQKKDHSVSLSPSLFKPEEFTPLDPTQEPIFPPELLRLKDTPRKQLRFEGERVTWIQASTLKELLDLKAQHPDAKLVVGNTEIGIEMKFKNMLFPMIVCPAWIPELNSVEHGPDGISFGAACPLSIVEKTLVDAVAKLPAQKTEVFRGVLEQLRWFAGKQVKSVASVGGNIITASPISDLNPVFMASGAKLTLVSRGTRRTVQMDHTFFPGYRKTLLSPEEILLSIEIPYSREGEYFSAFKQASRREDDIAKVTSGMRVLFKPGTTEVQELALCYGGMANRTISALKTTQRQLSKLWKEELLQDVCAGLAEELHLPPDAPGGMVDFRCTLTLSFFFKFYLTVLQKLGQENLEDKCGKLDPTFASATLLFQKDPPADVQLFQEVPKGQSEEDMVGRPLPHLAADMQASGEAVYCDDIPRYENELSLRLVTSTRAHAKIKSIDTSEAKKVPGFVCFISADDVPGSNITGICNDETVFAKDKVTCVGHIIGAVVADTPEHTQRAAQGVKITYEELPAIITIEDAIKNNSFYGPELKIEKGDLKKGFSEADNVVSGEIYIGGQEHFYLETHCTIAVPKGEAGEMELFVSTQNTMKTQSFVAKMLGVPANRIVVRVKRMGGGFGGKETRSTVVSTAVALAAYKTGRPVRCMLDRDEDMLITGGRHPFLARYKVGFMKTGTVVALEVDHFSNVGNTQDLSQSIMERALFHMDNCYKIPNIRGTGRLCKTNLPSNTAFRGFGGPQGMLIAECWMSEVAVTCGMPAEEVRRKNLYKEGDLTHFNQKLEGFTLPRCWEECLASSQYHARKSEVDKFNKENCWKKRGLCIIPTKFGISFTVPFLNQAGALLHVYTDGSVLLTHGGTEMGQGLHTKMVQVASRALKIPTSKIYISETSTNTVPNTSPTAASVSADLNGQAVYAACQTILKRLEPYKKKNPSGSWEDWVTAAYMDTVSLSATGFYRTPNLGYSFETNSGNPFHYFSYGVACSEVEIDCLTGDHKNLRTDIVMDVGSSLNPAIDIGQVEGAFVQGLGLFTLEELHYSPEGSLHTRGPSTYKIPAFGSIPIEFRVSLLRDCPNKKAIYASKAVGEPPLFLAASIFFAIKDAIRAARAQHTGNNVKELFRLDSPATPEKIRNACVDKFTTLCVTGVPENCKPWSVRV

With `COc1cc(-c2cnn3c(=O)nc[n-]c23)ccc1[S+]([O-])c1ccccc1.[Na+]` (stereo not shown) [BOF-4272] the “rates of O2.— production enhanced by xanthine” value (“rates … by xanthine” below) (aorta of SCD mice) was “returned to basal rates”.

For `O=S(=O)(O)c1cc(N=C=S)ccc1C=Cc1ccc(N=C=S)cc1S(=O)(=O)O` [DDS, 4,4-diisothiocyano-2,2 disulfonic acid stilbene], the “decrease in rates of cytochrome c reduction” value (HbA and HbS red cells [1]; pretreated with 200 μM, both HbA and HbS red cells) was about 35%.

In the case of `COC1=C(OC)C(=O)c2ccccc2C1=O` [DMNQ, 2,3-dimethoxynapthoquinone], the NOS activity (eNOS; DMNQ 5 μM) is reported as 0.75 ± 0.09 pmol/min/mg prot, the NOS activity (eNOS; DMNQ 50 μM) is reported as 0.49 ± 0.60 pmol/min/mg prot and the “rate of .NO consumption” value (HbA and HbS red cells [2]) is reported as “significantly increased rates of red cell .NO consumption”. For the same molecule, the “rates of O2. production” value (aorta of SCD mice; DMNQ 100 μM, positive control, both control and SCD mouse vessels) was “significantly enhanced rates of O2. production”.

With `Cc1c(O)c(=O)ccn1C` [HDP, 3-hydroxy-1,2-dimethyl-4-pyridone] the “decrease in O2.—” value (HbA and HbS red cells [1]; preincubation with HDP 0.5 mM, 150 mm Hg O2, pH 7.4) was about 36%.

In the case of `O=c1[nH]c(=O)c2c[nH]nc2[nH]1` [Oxypurinol], the “inhibition of xanthine oxidase activity in the forearm blood vessels” value (xanthine oxidase) is given as “greater than 90%” and the water solubility [3] is given as “increased water solubility as compared to allopurinol”.

With `Oc1ncnc2[nH]ncc12` [allopurinol] the “reversal of XO-induced reduction of vasodilation in response to acetylcholine” value (aortic rings [4]) was “reversible; also recorded: abrogated”, the “restoration of endothelial-dependent relaxation” value (aortic rings [5]) was “partially restored endothelial-dependent relaxation; also recorded: significantly reversed” and the “reversal of XO inhibition of .NO-mediated cGMP formation” value (guanylate cyclase) was “reversible”. For the same molecule, the “rates … by xanthine” value (aorta of SCD mice) was “returned to basal rates”, the “vessel relaxation in response to NO-dependent stimuli” value [6] was “reversal of impaired vessel relaxation” and the myocardial ischemia-reperfusion injury [7] was “attenuated”. For the same molecule, the myocardial ischemia-reperfusion injury [8] was “attenuated” and the direct antioxidant properties [9] was “no direct antioxidant properties”.

In the case of “CuZn SOD: CuZn superoxide dismutase, O2.- scavenging enzyme”, the “rate of .NO consumption” value (HbA and HbS red cells [2]) is reported as “did not impact on the rate of .NO consumption” and the “rates … by xanthine” value (aorta of SCD mice) is reported as “returned to basal rates”.

In the case of heparin, the “reversal of XO-induced reduction of vasodilation in response to acetylcholine” value (aortic rings [4]) is listed as “reversible; also recorded: abrogated”, the “restoration of endothelial-dependent relaxation” value (aortic rings [5]) is listed as “partially restored endothelial-dependent relaxation; also recorded: significantly reversed” and the “effect on XO binding to endothelium” value [10] is listed as “partially displaced”.
